Data taken from PubChem BioAssay AID248 (DTP/NCI, 2004).
Several values for one entry are separate records, joined by “and”; a condition that tells them apart may be missing. Identical values can stand only once. Toxic doses and inconclusive results are not listed. Rule as the data show it: active = T/C of 150% or more; inactive = T/C below 125%.

Test system: L1210 leukemia ip in BDF1 mice, survival T/C
Assay: NCI In Vivo Anticancer Drug Screen. Data for tumor model L1210 Leukemia (intraperitoneal) in B6D2F1 (BDF1) mice
Conditions: endpoint: mean survival time, higher = longer survival
Summary of the method: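 Tumor was transplanted into mice, which were then dosed with test compound or vehicle alone. Survival was recorded for each group, and the treated figure was expressed relative to the control figure.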

[1] = dose: 100.0 mg/kg/injection, schedule: Q01DX001 (ip), vehicle: other
[2] = dose: 100.0 mg/kg/injection, schedule: Q04DX003 (ip), vehicle: saline with Tween-80
[3] = dose: 200.0 mg/kg/injection, schedule: Q04DX003 (ip), vehicle: saline with Tween-80
[4] = dose: 400.0 mg/kg/injection, schedule: Q04DX003 (ip), vehicle: saline with Tween-80
[5] = dose: 100.0 mg/kg/injection, schedule: Q01DX001 (ip), vehicle: carboxymethylcellulose (CMC)
[6] = dose: 200.0 mg/kg/injection, schedule: Q01DX001 (ip), vehicle: carboxymethylcellulose (CMC)
[7] = dose: 400.0 mg/kg/injection, schedule: Q01DX001 (ip), vehicle: carboxymethylcellulose (CMC)
[8] = dose: 100.0 mg/kg/injection, schedule: Q01DX001 (ip), vehicle: saline
[9] = dose: 200.0 mg/kg/injection, schedule: Q01DX001 (ip), vehicle: saline
[10] = dose: 100.0 mg/kg/injection, schedule: Q04DX002 (ip), vehicle: Klucel (hydroxypropylcellulose) (HPC)
[11] = dose: 200.0 mg/kg/injection, schedule: Q04DX002 (ip), vehicle: Klucel (hydroxypropylcellulose) (HPC)
[12] = dose: 400.0 mg/kg/injection, schedule: Q04DX002 (ip), vehicle: Klucel (hydroxypropylcellulose) (HPC)

Measured: T/C

CC1(C)N=C(N)N=C(N)N1c1cccc(CCCCc2ccc(Cl)c(S(=O)(=O)F)c2)c1
inactive: dose: 7.0 mg/kg/injection, schedule: Q04DX003 (ip), vehicle: saline 97 % of control | dose: 12.5 mg/kg/injection, schedule: Q01DX009 (ip), vehicle: saline sonified 91 % of control | dose: 12.5 mg/kg/injection, schedule: Q04DX003 (ip), vehicle: saline sonified 100 % of control | dose: 14.0 mg/kg/injection, schedule: Q04DX003 (ip), vehicle: saline 95 % of control | dose: 25.0 mg/kg/injection, schedule: Q04DX003 (ip), vehicle: saline sonified 102 % of control | dose: 28.0 mg/kg/injection, schedule: Q04DX003 (ip), vehicle: saline 88 % of control | dose: 50.0 mg/kg/injection, schedule: Q04DX003 (ip), vehicle: saline sonified 96 % of control | dose: 56.0 mg/kg/injection, schedule: Q04DX003 (ip), vehicle: saline 93 % of control

CC[N+](CC)(CCOc1ccc(C(C)(C)CC(C)(C)C)cc1)Cc1ccccc1
inactive: dose: 1.25 mg/kg/injection, schedule: Q01DX009 (ip), vehicle: saline with Tween-80 86 % of control

O=C(N/N=C\c1ccccc1C(=O)O)c1ccco1
inactive: [1] 87 % of control | dose: 200.0 mg/kg/injection, schedule: Q01DX001 (ip), vehicle: other 93 % of control | dose: 400.0 mg/kg/injection, schedule: Q01DX001 (ip), vehicle: other 90 % of control

[O-][P+](=NC12CC3CC(CC(C3)C1)C2)c1ccccc1 (stereo not drawn)
inactive: dose: 75.0 mg/kg/injection, schedule: Q04DX003 (ip), vehicle: Klucel (hydroxypropylcellulose) (HPC) 99 % of control | dose: 150.0 mg/kg/injection, schedule: Q04DX003 (ip), vehicle: Klucel (hydroxypropylcellulose) (HPC) 101 % of control | dose: 300.0 mg/kg/injection, schedule: Q04DX003 (ip), vehicle: Klucel (hydroxypropylcellulose) (HPC) 100 % of control

O=Nc1ccc(O)c(Cl)c1
inactive: dose: 100.0 mg/kg/injection, schedule: Q01DX001 (ip), vehicle: Klucel (hydroxypropylcellulose) (HPC) 95 % of control | dose: 200.0 mg/kg/injection, schedule: Q01DX001 (ip), vehicle: Klucel (hydroxypropylcellulose) (HPC) 98 % of control

COc1ccc(C(=O)NC(=O)C(C(=O)c2ccc(OC)cc2)c2ccccc2)cc1 (stereo not drawn)
inactive: [1] 86 % of control

CCCC1(C)NC(=O)NC1=O (stereo not drawn)
inactive: dose: 100.0 mg/kg/injection, schedule: Q01DX009 (ip), vehicle: saline with Tween-80 97 % of control | [2] 110 % of control | dose: 200.0 mg/kg/injection, schedule: Q01DX009 (ip), vehicle: saline with Tween-80 98 % of control | [3] 104 % of control | dose: 400.0 mg/kg/injection, schedule: Q01DX009 (ip), vehicle: saline with Tween-80 93 % of control | [4] 102 % of control

COc1ccc(NP2(=O)OCC(C)(N)CO2)cc1 (stereo not drawn)
inactive: [5] 91 % of control | [6] 96 % of control | [7] 91 % of control

C=CCC(=O)O
inactive: dose: 83.0 mg/kg/injection, schedule: Q01DX Z (ip), vehicle: saline 96 % of control | dose: 125.0 mg/kg/injection, schedule: Q01DX Z (ip), vehicle: saline 90 % of control

CN(C)S(=O)(=O)Nc1cc(Cl)c(NS(=O)(=O)N(C)C)cc1Cl
inactive: dose: 100.0 mg/kg/injection, schedule: Q01DX009 (ip), vehicle: Klucel (hydroxypropylcellulose) (HPC) 94 % of control | dose: 100.0 mg/kg/injection, schedule: Q04DX003 (ip), vehicle: Klucel (hydroxypropylcellulose) (HPC) 91 % of control | dose: 200.0 mg/kg/injection, schedule: Q01DX009 (ip), vehicle: Klucel (hydroxypropylcellulose) (HPC) 96 % of control | dose: 200.0 mg/kg/injection, schedule: Q04DX003 (ip), vehicle: Klucel (hydroxypropylcellulose) (HPC) 93 % of control | dose: 400.0 mg/kg/injection, schedule: Q01DX009 (ip), vehicle: Klucel (hydroxypropylcellulose) (HPC) 102 % of control | dose: 400.0 mg/kg/injection, schedule: Q04DX003 (ip), vehicle: Klucel (hydroxypropylcellulose) (HPC) 98 % of control

Cc1c(O)cc(O)cc1O
inactive: [8] 96 % of control | [9] 98 % of control

S=C(NCC1CCCO1)Nc1cccc2ccccc12 (stereo not drawn)
inactive: [10] 95 % of control | [11] 91 % of control | [12] 95 % of control

CCOC(=O)c1cccc2ccc[n+](C)c12
inactive: dose: 37.5 mg/kg/injection, schedule: Q04DX003 (ip), vehicle: saline 91 % of control | dose: 75.0 mg/kg/injection, schedule: Q01DX001 (ip), vehicle: saline 97 % of control | dose: 75.0 mg/kg/injection, schedule: Q04DX003 (ip), vehicle: saline 91 % of control | dose: 150.0 mg/kg/injection, schedule: Q01DX001 (ip), vehicle: saline 97 % of control | dose: 150.0 mg/kg/injection, schedule: Q04DX003 (ip), vehicle: saline 95 % of control

O=[As](O)(CC(O)COc1ccc(Cl)cc1Cl)c1ccc(Cl)cc1 (stereo not drawn)
inactive: dose: 6.25 mg/kg/injection, schedule: Q01DX001 (ip), vehicle: saline with Tween-80 105 % of control | dose: 12.5 mg/kg/injection, schedule: Q01DX001 (ip), vehicle: saline with Tween-80 98 % of control | dose: 25.0 mg/kg/injection, schedule: Q01DX001 (ip), vehicle: saline with Tween-80 98 % of control | dose: 100.0 mg/kg/injection, schedule: Q01DX001 (ip), vehicle: saline with Tween-80 91 % of control

CCOC(=O)Cc1ccc2ccccc2c1
inactive: [2] 100 % of control | [3] 96 % of control | [4] 104 % of control

CCOC(=O)C(Cc1ccccc1[N+](=O)[O-])C(=O)OCC
inactive: [8] 103 % of control | dose: 100.0 mg/kg/injection, schedule: Q01DX009 (ip), vehicle: saline 103 % of control and 89 % of control | dose: 100.0 mg/kg/injection, schedule: Q04DX002 (ip), vehicle: saline 112 % of control and 113 % of control | dose: 100.0 mg/kg/injection, schedule: Q04DX003 (ip), vehicle: saline 94 % of control | [9] 101 % of control | dose: 200.0 mg/kg/injection, schedule: Q01DX009 (ip), vehicle: saline 93 % of control and 105 % of control | dose: 200.0 mg/kg/injection, schedule: Q04DX002 (ip), vehicle: saline 108 % of control | dose: 200.0 mg/kg/injection, schedule: Q04DX003 (ip), vehicle: saline 103 % of control | dose: 400.0 mg/kg/injection, schedule: Q01DX001 (ip), vehicle: saline 100 % of control | dose: 400.0 mg/kg/injection, schedule: Q01DX009 (ip), vehicle: saline 96 % of control and 105 % of control | dose: 400.0 mg/kg/injection, schedule: Q04DX002 (ip), vehicle: saline 102 % of control and 108 % of control | dose: 400.0 mg/kg/injection, schedule: Q04DX003 (ip), vehicle: saline 103 % of control

Ic1ccc([I+]c2ccc(I)cc2)cc1
inactive: [10] 106 % of control | [11] 106 % of control | [12] 106 % of control

Cc1ccc(NCC(O)CN2CCCCC2)cc1 (stereo not drawn)
inactive: dose: 10.0 mg/kg/injection, schedule: Q01DX009 (ip), vehicle: other 104 % of control | dose: 20.0 mg/kg/injection, schedule: Q01DX009 (ip), vehicle: other 98 % of control | dose: 40.0 mg/kg/injection, schedule: Q01DX009 (ip), vehicle: other 92 % of control

NC(=O)C(C(N)=O)C1CCCCc2ccccc21 (stereo not drawn)
inactive: [5] 90 % of control | [6] 106 % of control | [7] 88 % of control
